From patent publication US7334580B2, “Methods, devices and formulations for targeted endobronchial therapy” (priority 2003, dated 2008)

Assay: Antibiotic aerosol delivery with nebulizer at distal Y position, three nebulizers
Design: unit not given here
Details: T-BIRD, continuous
From the text: The inhaled mass filter 1040 allows one to do accurate measurements of what delivery amounts are actually reaching the patient 10.
In a second experiment, the arrangements of FIGS. 15A and 15B were used with a single commercially available ventilator (the T-Bird ventilator) together with three different commercially available nebulizers. The nebulizer actuation was examined in the “continuous” mode. The humidity feature for these ventilators was examined by performing the test both when the feature is active and when it is off. An expiratory line filter was also used (not shown). Clearly, the Portex nebulizer performed poorly under these conditions.

[1] = AEROGEN nebulizer, humidity OFF
[2] = AEROTECH nebulizer, humidity OFF
[3] = AEROTECH nebulizer, humidity ON

Molecule | MMAD [1] | MMAD (AEROGEN nebulizer, humidity ON) | MMAD [2] | MMAD [3] | MMAD (PORTEX nebulizer, humidity ON)
gentamicin | 1.1 | 1.2 | 0.9 | 1.3 | 0.9
CN[C@H](CC(C)C)C(=O)N[C@H]1C(=O)N[C@@H](CC(N)=O)C(=O)N[C@H]2C(=O)N[C@H]3C(=O)N[C@H](C(=O)N[C@H](C(=O)O)c4cc(O)cc(O)c4-c4cc3ccc4O)[C@H](O)c3ccc(c(Cl)c3)Oc3cc2cc(c3O[C@@H]2O[C@H](CO)[C@@H](O)[C@H](O)[C@H]2O[C@H]2C[C@](C)(N)[C@H](O)[C@H](C)O2)Oc2ccc(cc2Cl)[C@H]1O [VANCOMYCIN, vancomycin] | 2 | 2 | 1.7 | 1.1 | 1.1
